What was measured:
MCF-7 cells = experiment: Inhibition of proliferation of MCF-7 cells (CCK-8); assay type: cell-based, human; details: for IC50: Homo sapiens, MCF7, 144 h, 6 days, CCK-8
Experimental: • MCF-7 cell line (Cell Bank of Chinese Academy of Sciences, TCHu74) • FBS (Gibco, Cat. No. 10099-141) • 0.01M PBS (Biosharp, Cat. No. 162262) • RIPM1640 (Hyclone, Cat. No. 308090.01) • Penicillin-Streptomycin (Hyclone, Cat. No. SV30010) • Cell counting kit-8 (Signalway Antibody, Cat. No. CP002) • DMSO (Sigma, Cat. No. D5879) • Centrifuge Tube, 15 ml (Excell Bio, Cat. No. CS015-0001) • Cell Culture Dish, (Excell Bio, Cat. No. CS016-0128) • 96-well cell culture cluster (Corning, Cat. No. 3599) 3. Experimental Method
1) MCF-7 cells were subcultured in cell culture media, and the cells in good growth condition were seeded in a 96-well plate, 80 μL for each well, thus the number of cells per well was 1000, then the plate was cultured overnight in a 37° C., 5% CO2 cell incubator.
2) The drug was prepared with dimethyl sulfoxide (DMSO) as a 10 mM stock solution. Prior to use, the solution was diluted 3 times with DMSO, and then diluted with a 3-fold gradient to obtain 9 concentration gradients. Then, each concentration of the compound was further diluted 200 times with the culture media (to ensure that DMSO concentration in the culture system was 0.1%), 2 repeat wells for each concentration. The diluted solution of each compound (20 μL) was added to the cell culture well (with a final concentration of 10 μM, 3.3 μM, 1.1 μM . . . ), and shaken gently for mixing.
In addition, three negative control wells containing only cells and three blank control wells containing only culture medium (20 μL DMSO diluted 200 times with culture medium being added to six wells) were included.
(1) After culturing for 6 days, 10 μL CCK-8 was added to each well and cultured for additional 2.5 h in a 37° C., 5% CO2 cell incubator.
(2) The absorbance (OD value) at 450 nm was measured with a multifunctional microplate reader.
(3) The data was analyzed by the Dose-response-inhibition equation in the software GraphPad Prism6, and the IC50 value was obtained.

BRD3(1,2) = BRD3(1,2) (Homo sapiens (Human), UniProt Q15059); experiment: AlphaScreen binding of compounds on BRD3 (D1+D2); details: read-out: IC50 against BRD3(1,2)
Source text: (§1) Homogeneous time-resolved fluorescence technology (HTRF) was used to determine the binding effect of compounds on BRD4 (D1+D2) and BRDT (D1) proteins, as well as AlphaScreen method was used to detect the binding effect of compounds on BRD2 (D1+D2) and BRD3 (D1+D2) proteins.
(§2) The compounds were screened in vitro, and each compound was serially diluted to 10 concentrations. Four proteins BRD4 (D1+D2), BRDT (D1), BRD2 (D1+D2) and BRD3 (D1+D2) were chosen to determine the IC50 values of compounds (see Table 1).
(§3) 4. Compound treatment: The test compound was dissolved in dimethyl sulfoxide (DMSO), and the storage concentration was 10 mM.
(§4) 6. AlphaScreen Detection Procedures:
(§5) 1) Preparing One-Fold Concentration of Detection Buffer
(§6) One-fold concentration of detection buffer was prepared (Improved HEPES buffer)
(§7) 2) Gradient Dilution of Compounds
(§8) Echo automatic sampler was used to transfer the compound to the detection plate for gradient dilution, so that the final concentration of dimethyl sulfoxide was 0.1%.
(§9) 3) Preparation of Protein Solution
(§10) The protein was dissolved in one-fold concentration of detection buffer.
(§11) 4) Preparation of Substrate Solution
(§12) The peptide was dissolved in one-fold concentration of detection buffer to prepare the substrate solution.
(§13) 5) 5 μL protein solution was transferred to the detection plate, and one-fold concentration of detection buffer (5 μL) was placed in the negative control wells.
(§14) 6) The plate was incubated for 15 min at room temperature.
(§15) 7) 5 μL substrate solution was added to each well to start the reaction.
(§16) 8) The plate was incubated for additional 60 min at room temperature.
(§17) 9) Preparation of acceptor solution and donor solution in one-fold concentration of assay buffer Acceptor solution (15 μL) and donor solution (15 μL) were respectively added, and then incubated at room temperature for 60 min and protected against exposure to light.
(§18) 10) The endpoint was read in EnSpire and Alpha mode.
(§19) The experimental data were recorded in an Excel file and equation (1) was used to get the inhibition rate. Inh%=(Max−Signal)/(Max−Min)*100 Equation (1):
(§20) The obtained data were input into GraphPad software, and equation (2) was used to obtain the IC50 value. Y=Bottom+(Top−Bottom)/(1+10^((Log IC50−X)*Hill Slope)) Formula (2): […]
(§21) Wherein, Y axis was the inhibition rate, and the X axis was the compound concentration.

BRD2(1,2) = BRD2(1,2) (Homo sapiens (Human), UniProt P25440); experiment: AlphaScreen binding of compounds on BRD2 (D1+D2); details: read-out: IC50 against BRD2(1,2)
Source text: as §1, §2, §3, §4, §5, §6, §7, §8, §9, §10, §11, §12, §13, §14, §15, §16, §17, §18, §19, §20, §21

CWR22RV1 cells = experiment: Inhibition of proliferation of CWR22RV1 cells (CCK-8); assay type: cell-based, human; details: Homo sapiens, CWR22Rv1, 144 h, 6 days
Summary of the method: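 Cells seeded at 1500/well, cultured overnight, then exposed to compounds in 3-fold dilutions (9 concentrations from 10 μM top final, 0.1% DMSO) for 6 days at 37 °C. Viability read by CCK-8 absorbance at 450 nm after 2.5 h; IC50 from dose-response inhibition fit.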

BRD3(1,2), sequence (Q15059 29-417): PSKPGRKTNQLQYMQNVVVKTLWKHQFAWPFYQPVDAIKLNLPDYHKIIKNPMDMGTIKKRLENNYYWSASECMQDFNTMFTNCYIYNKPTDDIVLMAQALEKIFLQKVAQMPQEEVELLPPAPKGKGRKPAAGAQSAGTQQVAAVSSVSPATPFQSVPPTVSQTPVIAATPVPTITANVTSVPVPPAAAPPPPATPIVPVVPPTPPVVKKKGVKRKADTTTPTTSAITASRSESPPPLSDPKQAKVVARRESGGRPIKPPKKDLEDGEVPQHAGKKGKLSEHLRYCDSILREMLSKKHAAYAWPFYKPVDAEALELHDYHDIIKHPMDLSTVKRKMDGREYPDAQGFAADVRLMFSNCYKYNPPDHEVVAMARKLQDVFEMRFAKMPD
BRD2(1,2), sequence (P25440 65-459): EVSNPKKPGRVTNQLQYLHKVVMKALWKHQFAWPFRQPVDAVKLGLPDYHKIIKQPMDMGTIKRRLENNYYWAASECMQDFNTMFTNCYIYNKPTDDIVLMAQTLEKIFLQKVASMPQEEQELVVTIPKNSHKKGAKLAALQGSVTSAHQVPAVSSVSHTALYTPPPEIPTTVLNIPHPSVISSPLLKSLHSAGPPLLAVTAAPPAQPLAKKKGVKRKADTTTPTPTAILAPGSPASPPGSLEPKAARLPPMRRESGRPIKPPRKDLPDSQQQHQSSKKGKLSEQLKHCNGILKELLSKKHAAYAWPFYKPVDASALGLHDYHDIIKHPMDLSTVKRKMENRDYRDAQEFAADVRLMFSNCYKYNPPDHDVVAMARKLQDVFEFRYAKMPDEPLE

| SMILES | IC50 (MCF-7 cells) | IC50 (BRD3(1,2)) | IC50 (BRD2(1,2)) | IC50 (CWR22RV1 cells) | inhibitory action on MCF-7 cells (in words) (MCF-7 cells) |
| --- | --- | --- | --- | --- | --- |
| [2H]C([2H])([2H])n1cc(-c2cc(NS(=O)(=O)CC)ccc2N2CCC3(CC2)CC3)c2cc[nH]c2c1=O [Compound 41] | 54 nM | 5.2 nM | 2.3 nM | 5 nM | – |
| [2H]C([2H])([2H])n1cc(-c2cc(S(=O)(=O)CC)ccc2N2CCC3(CC3)C2)c2cc[nH]c2c1=O [Compound 55, 4-(5(ethylsulfonyl)-2-(5-aza-spiro[2.4]heptan-5-yl)phenyl)-6-trideuteromethyl-1H-pyrrolo[2,3-c]pyridin-7(6H)-one] | 100 nM | – | – | 21 nM | – |
| [2H]C([2H])([2H])n1cc(-c2cc(S(C)(=O)=O)ccc2N2CCC3(CC2)CC3(F)F)c2cc[nH]c2c1=O [Compound 184, 4-(2-(1,1-difluoro-6-aza-spiro[2.5]octan-6-yl)-5-(methylsulfonyl)phenyl)-6-trideuteromethyl-1H-pyrrolo[2,3-c]pyridin-7(6H)-one] | 14 nM | 4.7 nM | 2 nM | 8.1 nM | effective inhibitory action |
| [2H]C([2H])([2H])n1cc(-c2cc(S(C)(=O)=O)c(F)cc2N2CCC3(CC2)CC3(F)F)c2cc[nH]c2c1=O [Compound 219, 4-(2-(1,1-difluoro-6-aza-spiro[2.5]octan-6-yl)-4-fluoro-5-(methylsulfonyl)phenyl)-6-trideuteromethyl-1H-pyrrolo[2,3-c]pyridin-7(6H)-one] | – | 6.7 nM | 1.8 nM | 7.1 nM | – |

— patent publication US12162878B2 (HINOVA PHARMACEUTICALS INC., priority 2018, dated 2024)
